Eight molecules from publication PMC10398414, “Isolation and characterization of β-transducin repeat-containing protein ligands screened using a high-throughput screening system” (Oncology Research, 2023) can be followed below.

Square brackets hold non-standard residues; d marks the D form. Ends that are not written are not given here. Peptide text beside a SMILES is read from it. * marks the point of attachment. pS = N[C@@H](COP(=O)(O)O)C(=O)O; Cbz = O=C(OCc1ccccc1)*

Data set [1] deals with SCF^β-TrCP1 (Homo sapiens, UniProt Q9Y297). The data set is described as follows: In vitro ubiquitination assay (GST-Wee1KR substrate, immunoblotting). The format is biochemical. As to conditions: immunoblots quantitated by ImageJ. How it is done: Components of SCF complex (SKP1, Cul1, Rbx1, and hemagglutinin (HA)-tagged β-TrCP) were expressed in HEK293T cells. Anti-HA antibody was added into the SCF complexes expressed HEK 293T cell lysate and rotated at 4°C for 1 h. Aliquots of this mixture were added to protein G beads and rotated at 4°C for 30 min. After washing the beads in cell lysis buffer three times, the tube was centrifuged at 20,400 × g for 5 min and the supernatant was discarded. The protein on the beads was used as recombinant SCF^β-TrCP complexes. Aliquots of SCF complexes bound on the beads were then added to ubiquitination reactions (10 mM Tris pH = 7.5, 5 mM MgCl2, 1 mM DTT, 1 mM ATP, 20 mM creatine phosphate, 0.1 mg/mL creatine kinase, 5 mM NaF, 1 mM Na3VO4, 2 mg/mL ubiquitin, 0.5 μg E1 enzyme, 2 μg E2 enzyme) in a final volume of 30 µL. Compounds of 100 µM final concentration were added to reactions, and GST-Wee1KR was added as substrate 15 min later. The reaction mixtures were incubated at 37°C for 2 h and were further examined by immunoblotting.
(§1) Immunoblotting followed by in vitro ubiquitination assay was performed using anti-human Wee1A [30]. Immunoblotting in the analysis of protein degradation was performed using anti-phospho-β-catenin (Ser33/37/Thr41) antibody (1:1000, Cell Signaling Technology, Danvers, MA, USA), anti-phospho-IκBα (Ser32) (14D4), Rabbit mAb (1:1000, Cell Signaling Technology), anti-β-catenin (D10A8) (1:1000, Cell Signaling Technology), anti-IκBα antibody (1:1000, Cell Signaling Technology), and Goat polyclonal anti-rabbit IgG antibody (1:5000, Proteintech, Am Klopferspitz, Planegg-Martinsried, Germany). The transferred membrane was incubated with specific antibody, then detected using Super Signal West Pico chemiluminescent substrate (Thermo Fisher Scientific) and FUSION SOLO S (VILBER LOURMAT/MS equipment, Zi Sud torcy, Marne-la-vallee, France). The quantification of immunoblotting results was performed using ImageJ software.
(In general: Immunoblotting shows a protein as a band on a membrane.)

The test system of data set [2] is β-catenin and phosphorylated β-catenin in HeLa cells. Kind of data set: Analysis of β-catenin degradation by immunoblotting in HeLa cells. The format is cell-based. Conditions: 3 h with compound. How it is done: as §1
For examining the effect on degradation of β-catenin, HeLa cells were cultured in the presence or absence of the compound for 3 h. The cell extracts were examined by immunoblotting using antibodies against β-catenin and phosphorylated β-catenin (p-β-catenin).

For data set [3], the system named is TCF transcription in HeLa cells. The data set is described as follows: TOP/FOP-Flash luciferase reporter assay (TCF transcription activity). The format is cell-based. Conditions: 24 h with compound. The method, then:
HeLa cells were seeded on 96-well plates. Subsequently, TCF and NF-κB transcription activity was examined by the luciferase assay system. T-cell Factor (TCF) transcription activity was assessed by TOP/FOP-Flash luciferase reporter assay, using a pRL-SV40 vector as an internal control. TOP FLASH contains three […] and a firefly luciferase reporter with a minimal promoter and an upstream of the luciferase reporter gene. FOP FLASH is similar to TOP reporter; however, it has three mutated TCF-binding sites and is used as a negative control. The average ratio of TOP to renilla luciferase divided by FOP was used as TCF activity. TOP flash (Sigma-Aldrich, Temecula, CA, USA) or FOP FLASH reporter plasmids (Sigma-Aldrich) and pRL-sv40 renilla luciferase reporter (Promega) were co-transfected into HeLa cells using Lipofectamine 3000 reagent kit (Thermo Fisher Scientific). Furthermore, 24 h after transfection, cells were cultured with the compounds of different dilutions for another 24 h. The cells were lysed, and the luminescence was measured using the Luciferase Assay System (Promega). A minimum of three samples were taken for each sample.

Data set [4] has as its system IκBα and phosphorylated IκBα in HeLa cells. Kind of data set: TNF-α induced IκBα degradation by immunoblotting in HeLa cells. The format is cell-based. As to conditions: 30 min compound then TNF-α 40 ng/mL 5 min. The method, then: as §1
For examining the effect on degradation of IκBα, HeLa cells were cultured in the presence or absence of the compound for 30 min. TNF-α (Cat. No. TNA-H4211, Acro Biosystems, Newark, DE, USA) was added (40 ng/mL) and incubated for another 5 min. The cell extracts were analyzed using immunoblotting using antibodies against IκBα and phosphorylated IκBα (p-IκBα).

In data set [5] the test system is NF-κB transcription activity in HeLa cells. The data set is described as follows: NF-κB luciferase reporter assay (pGL-4.32), TNF-α induced. The format is cell-based. Conditions: for NF-κB transcription, % of that of the control group (DMSO, TNF-α): 20 μM; for TNF-α induced NF-κB activation of transcription: 24 h compound then TNF-α 4 h. How it is done:
For NF-κB transcription activity, PGL-4.32 contains five copies of the NF-κB response element, which is responsible for the transcription of the luciferase reporter gene, with pRL-SV40 as the internal control. NF-κB transcription activity was determined by firefly luciferase expression and normalized by renilla luciferase level. pGL-4.32 reporter plasmids (Promega) and pRL-sv40 renilla luciferase reporter (Promega) were co-transfected into HeLa cells using Lipofectamine 3000 reagent kit. Subsequently, 24 h after transfection, cells were cultured with the compounds of different dilutions for another 24 h. Furthermore, TNF-α was added, and the plates were cultured for another 4 h. The cells were lysed, and the luminescence was measured using the Luciferase Assay System. A minimum of three samples were taken for each sample.
(In general: In a reporter assay the amount or activity of a reporter protein is the signal.)

For data set [6], the system named is HeLa cells. The data set is described as follows: Cytotoxicity / cell death. Conditions: data not shown. The format is cell-based.
The target in data set [7] is T1, mAG-β-TrCP1 (Homo sapiens, UniProt Q9Y297).
T1 construct: made in house; host or cells: Express SF+ insect cells (baculovirus, pFASTBacI); crude lysate used
T1 sequence (Q9Y297 1-605): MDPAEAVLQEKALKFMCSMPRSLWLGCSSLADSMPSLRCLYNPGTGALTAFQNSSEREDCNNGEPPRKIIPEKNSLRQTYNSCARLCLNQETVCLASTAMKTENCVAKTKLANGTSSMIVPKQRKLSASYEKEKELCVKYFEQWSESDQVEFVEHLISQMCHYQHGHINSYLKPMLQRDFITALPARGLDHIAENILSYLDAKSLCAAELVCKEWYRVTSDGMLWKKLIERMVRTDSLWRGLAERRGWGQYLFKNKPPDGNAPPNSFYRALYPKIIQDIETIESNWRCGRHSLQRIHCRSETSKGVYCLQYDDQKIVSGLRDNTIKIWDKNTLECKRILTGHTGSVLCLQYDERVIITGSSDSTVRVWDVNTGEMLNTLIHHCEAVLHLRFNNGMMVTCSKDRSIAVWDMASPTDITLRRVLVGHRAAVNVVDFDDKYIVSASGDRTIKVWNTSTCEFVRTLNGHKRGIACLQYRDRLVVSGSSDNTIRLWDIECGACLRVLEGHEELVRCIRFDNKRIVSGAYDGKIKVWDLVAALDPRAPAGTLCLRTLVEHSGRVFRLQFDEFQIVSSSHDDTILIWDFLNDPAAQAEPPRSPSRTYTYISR
The data set is described as follows: High-throughput screening system for β-TrCP ligands (mAG-β-TrCP1 binding to plate-fixed C-IκB-PP15). As to conditions: serially diluted free phosphopeptide in cell lysate. An excerpt: NotI digested mAG-β-TrCP1 (mAG, N-terminally fused fluorescent monomeric Azami Green) fragment was inserted to NotI pFASTBacI (Gibco) site for obtaining recombinant plasmid containing mAG-β-TrCP1. The recombinant plasmids were then transformed into DH10Bac cells and the obtained recombinant bacmids were transfected into Express SF+ Cells. Phosphopeptides C-IkB pp15 with target sequences (seq: CDDRHDpSGLDpSMKDEE) for β-TrCP-dependent binding or its negative control C-IkB s15 (seq: CDDRHDSGLDSMKDEE) were used in the establishment of the high-throughput system. These phosphopeptides, and their non-phosphorylated derivatives, were chemically synthesized at RIKEN CBS, Research Resources Center, Japan. C-IkB pp15 or C-IkB s15 (100 μL/well of 10 μM solution) were covalently attached to maleimide-activated 96-well plates (Themo Fisher Scientific, Waltham, MA, USA) overnight. […] After washing, bound mAG-β-TrCP1 was quantitated using spectrofluorometry (excitation, 470 nm; emission, 525 nm).
C-IκB-PP15 is a phosphopeptide whose sequence is derived from IκB that is known to bind to β-TrCP. […] After enough binding and washing, the bound mAG-β-TrCP1 was quantitated using spectrofluorometry. […] When the small molecules compete with the phosphopeptides for mAG-β-TrCP1 binding, there was less plate fluorescence (Fig. 1A).

Chain of SCF^β-TrCP1 (P63208 whole entry partner, one chain of several): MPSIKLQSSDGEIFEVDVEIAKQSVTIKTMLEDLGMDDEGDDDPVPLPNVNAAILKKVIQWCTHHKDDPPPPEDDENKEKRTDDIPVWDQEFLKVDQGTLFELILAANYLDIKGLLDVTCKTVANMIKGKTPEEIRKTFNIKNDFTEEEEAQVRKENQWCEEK
Chain of SCF^β-TrCP1 (Q13616 whole entry partner, one chain of several): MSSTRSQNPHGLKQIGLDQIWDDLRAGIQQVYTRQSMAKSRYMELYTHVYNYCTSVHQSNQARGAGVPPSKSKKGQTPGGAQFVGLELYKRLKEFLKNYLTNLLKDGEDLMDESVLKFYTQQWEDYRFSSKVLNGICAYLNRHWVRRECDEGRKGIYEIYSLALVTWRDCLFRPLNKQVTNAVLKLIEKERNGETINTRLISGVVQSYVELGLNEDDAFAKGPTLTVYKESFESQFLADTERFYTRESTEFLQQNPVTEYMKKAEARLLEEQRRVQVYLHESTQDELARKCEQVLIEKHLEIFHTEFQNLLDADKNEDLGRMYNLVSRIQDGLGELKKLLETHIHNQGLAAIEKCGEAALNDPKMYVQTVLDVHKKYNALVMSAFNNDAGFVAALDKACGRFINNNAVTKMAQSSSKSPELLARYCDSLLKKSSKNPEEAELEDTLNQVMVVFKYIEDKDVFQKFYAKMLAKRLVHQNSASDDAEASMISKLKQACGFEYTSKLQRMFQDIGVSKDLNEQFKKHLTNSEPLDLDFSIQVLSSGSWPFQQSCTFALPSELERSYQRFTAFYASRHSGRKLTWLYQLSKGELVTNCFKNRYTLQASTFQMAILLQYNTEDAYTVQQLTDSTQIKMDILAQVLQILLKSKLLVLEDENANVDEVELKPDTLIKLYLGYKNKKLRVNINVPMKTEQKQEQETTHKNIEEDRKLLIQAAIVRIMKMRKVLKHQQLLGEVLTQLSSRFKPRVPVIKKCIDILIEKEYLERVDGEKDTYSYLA
Chain of SCF^β-TrCP1 (P62877 whole entry partner, one chain of several): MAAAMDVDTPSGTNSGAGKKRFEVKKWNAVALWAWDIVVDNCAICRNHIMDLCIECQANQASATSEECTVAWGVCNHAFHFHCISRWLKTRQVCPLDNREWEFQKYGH

In data set [1], `O=C(O)c1ccc(N2N=C(Cc3ccccc3)/C(=C/c3ccc(-c4ccccc4F)o3)C2=O)cc1` [GS143, reference compound] gave a 50% inhibitory concentration (IC50) of 25 µM. In data set [2], the “level of phosphorylated β-catenin (p-β-catenin)” value (shortened to “level … (p-β-catenin)”) is reported as “did not affect” and the “level of β-catenin” value is reported as “did not affect”. In addition, the TCF transcription result in data set [3] is on record as “did not affect TCF transcription”. In data set [4], the “level of IκBα after TNF-α” value was “caused the inhibition of the degradation” and the “level of phosphorylated IκBα (p-IκBα) after TNF-α” value is listed as “caused the inhibition of the degradation”. Besides, the “NF-κB transcription, % of that of the control group (DMSO, TNF-α)” value in data set [5] is given as ~ 40%.
With `CC(C)C[C@@H](C=O)NC(=O)[C@H](CC(C)C)NC(=O)[C@H](CC(C)C)NC(=O)OCc1ccccc1` [MG132, reference compound] (Cbz-Leu-Leu-Leu-aldehyde), in data set [2], the “level … (p-β-catenin)” value was “caused the accumulation” and the “level of β-catenin” value is “caused the accumulation”. In data set [4], the “level of IκBα after TNF-α” value is recorded as “caused the inhibition of the degradation” and the “level of phosphorylated IκBα (p-IκBα) after TNF-α” value was “caused the inhibition of the degradation”.
`CC1=NN(c2ccc(C(=O)O)cc2)C(=O)/C1=C\c1ccc(-c2ccc3c(c2)C(=O)N(C(C)C)C3=O)o1` [NPL42040-01] yielded an IC50 in data set [1] of 13 µM. Also, the “TNF-α induced NF-κB activation of transcription” value in data set [5] is given as “reduced NF-κB activation dose-dependently”. Moreover, in data set [6], the non-specific cytotoxicity entry is given as “cytotoxicity only at high concentration”.
In turn, `CC1=NN(c2ccc(C(=O)O)cc2)C(=O)/C1=C\c1ccc(-c2cc(C)c(C)cc2[N+](=O)[O-])o1` [NPL62020-01] yielded an IC50 in data set [1] of 30 µM. For the same molecule, in data set [5], the “NF-κB transcription, % of that of the control group (DMSO, TNF-α)” value is “approximately 20%” and the “TNF-α induced NF-κB activation of transcription” value is given as “reduced NF-κB activation dose-dependently”. Also, the non-specific cytotoxicity result in data set [6] is on record as “cytotoxicity only at high concentration”.
Molecule `COC(=O)c1ccc(-c2ccc(/C=C3\C(=O)N(c4cccc(C(=O)O)c4)N=C3C(F)(F)F)o2)cc1` [NPL62039-01] returned an IC50 in data set [1] of 9 µM. For the same molecule, in data set [2], the “level … (p-β-catenin)” value is on record as “promoted the accumulation” and the “level of β-catenin” value is “did not significantly affect”. Also, the TCF transcription result in data set [3] is reported as “did not cause a high increase”.
The molecule `O=C(O)c1ccc(-c2ccc(/C=C3\C(=O)N(c4ccc(C(=O)O)cc4)N=C3C(F)(F)F)o2)cc1` [NPL72038-01] gave a half-inhibitory concentration (IC50) in data set [1] of 7 µM. Moreover, in data set [2], the “level … (p-β-catenin)” value was “promoted the accumulation” and the “level of β-catenin” value is on record as “did not significantly affect”. Moreover, in data set [3], the TCF transcription entry is recorded as “did not cause a high increase”.
In the case of “CDDRHDpSGLDpSMKDEE (CDDRHD[pS]GLD[pS]MKDEE) [C-IκB-PP15]”, the “binding of mAG-β-TrCP1 to plate-fixed phosphopeptide in presence of free phosphopeptide” value in data set [7] is recorded as “concentration-dependent binding decrease”.

B1: Wnt3a: molecule that stimulates classic Wnt signaling (protein, UniProt P56704 19-352, looked up)
Protein Wnt-3a: SYPIWWSLAVGPQYSSLGSQPILCASIPGLVPKQLRFCRNYVEIMPSVAEGIKIGIQECQHQFRGRRWNCTTVHDSLAIFGPVLDKATRESAFVHAIASAGVAFAVTRSCAEGTAAICGCSSRHQGSPGKGWKWGGCSEDIEFGGMVSREFADARENRPDARSAMNRHNNEAGRQAIASHMHLKCKCHGLSGSCEVKTCWWSQPDFRAIGDFLKDKYDSASEMVVEKHRESRGWVETLRPRYTYFKVPTERDLVYYEASPNFCEPNPETGSFGTRDRTCNVSSHGIDGCDLLCCGRGHNARAERRREKCRCVFHWCCYVSCQECTRVYDVHTCK
In the case of B1, in data set [3], the TCF transcription entry is reported as “increased”.

The IC50 is the concentration that gives 50% inhibition.
